According to patent US20080161389A1, “METHOD OF TREATING OCULAR HYPERTENSION AND INTESTINAL DISORDERS BY USING DIANHYDROHEXITE MONONITRATE DERIVATIVES” (LACER, S.A., priority 2006, published 2008):

Tests used:
[1] = test system: Alfa-Chymotrypsin-Induced Glaucoma; assay: Intraocular pressure in alfa-chymotrypsin-induced glaucoma; type: in vivo, rabbits; conditions: for intraocular pressure 0 hr: 0 h after 3 drops instillation; for intraocular pressure 0 hr / intraocular pressure 1 hr / intraocular pressure 2 hr: rabbits with alpha-chymotrypsin-induced glaucoma; for reduction of intraocular pressure (in words): 0.05%, similar to conventional compound at 10-fold lower concentration; for intraocular pressure 1 hr: 1 h after 3 drops instillation; for intraocular pressure 2 hr: 2 h after 3 drops instillation
Method: The method used was that described by Gabriele Campana, Claudio Bucolo, Giovanna Murari and Santi Spampinato in Pharmacol. Exp Therap Vol. 303, Issue 3, 1086-1094, December 2002
Animals were injected with intra muscular injection of dexamethasone at the dose rate of 10 mg/Kg body weight, to avoid immediate inflammation. Animals were anesthetized with ketamine (50 mg/kg IV) in combination with Dizepam.
Xylocaine (4%) was used for local anesthesia topically. A cannula attached to reservoir was inserted into the anterior chamber with the help of a 30 gauge needle to provide a hydrostatic pressure of 25 mmHg during injection of alpha-chymotrypsin. Then a second appropriately shaped 30 gauge needle was introduced near the pupil. Freshly prepared 150 units of alpha chymotrypsin prepared in 0.1 ml of sterile saline was irrigated through the cannula into the posterior chamber. Care was taken to prevent the contact of alpha chymotrypsin with corneal stroma. Both cannulas were carefully removed without significant loss of aqueous humor. Immediately after surgery the eye treated with Sofracort (Corticosteroid) to reduce the chances of fungal or microbial infection.
All the animals were kept under observation for 5 days and after these five days the intraocular pressure (IOP) was measured daily with a Schiontz type indentation tonometer using 5.5 gm weights and by compilation of readings the maximum period required to achieve a stable increase in IOP was determined. […] IOP was measured after 15 days for 3 consecutive days, every morning (at same time) to assure stable IOP.
All the animals were closely observed for the development of glaucoma. Thirty animals showing the symptoms of glaucoma and with the intra ocular pressure more than 30 mmHg were selected for the present investigation.
Compounds 2-acetylthioisosorbide-5-mononitrate and 2-[(R)-methylsulfinyl]isosorbide-5-mononitrate (0.05%) were administered to two different groups of rabbits at a concentration of 0.05% by weight [0.05g in 100 mL of saline serum] by 3 drops instillation. For comparative data, the compound Timolol (Timoftol®) widely used for the treatment of glaucoma, was also administered to another group of rabbits at a concentration of 0.5% by weight.
The intraocular pressure measurements are included in the table 2 in mm Hg taken at 0, 1 and 2 h after 3 drops instillation.

Myeloperoxidase (MPO) = Myeloperoxidase (MPO) activity as inflammation index in homogenized tissue samples (ELISA), indomethacin-induced intestinal inflammation; type: in vivo, mice; conditions: for MPO activity: homogenized tissue samples, mice, indomethacin-induced intestinal inflammation, 30 mg/kg orally
Method: (§1) Intestinal inflammation were induced by administration of two subcutaneous injections of 7.5 mg/kg indomethacin, as previously described Porras M., Martin M T., Soler M. and Vergara P., “Intestinal motor disorders associated with cyclical bacterial overgrowth in a rat model of enteritis”. Am. J. Physiol. Gastrointest. Liver Physiol. […] Am. J. Physiol. Gastrointest. Liver Physiol. (2006), 290:G423-G430.
(§2) Once the intestinal inflammation has been induced, one group of mice were treated with 30 mg of the compound 2-acetylthioisosorbide-5-mononitrate per kg of body weight, being dissolved this compound in water and administered orally. For comparative data, the compound isosorbide-5-mononitrate (IS-5-MN), structurally similar to 2-acetylthioisosorbide-5-mononitrate, was also administered to another group of mice.
(§3) Myeloperoxidase (MPO) activity was measured as an inflammation index in homogenized tissue samples after centrifugation using a specific ELISA kit (HyCult biotechnology, Uden, The Netherlands). In addition, since the barrier function of the intestinal mucus is deteriorated when the epithelium is inflamed and, as a consequence, the exposed bacteria cross the membrane and enter in the blood current, bacterial translocation was measured by detection of viable enteric bacteria in mesenteric lymph nodes as described by [M Mainous M R., Tso P., Berg R. D. and Deitch E. A., Arch Surg (1991) 126:33-37] as additional measure of inflammation degree.

Enterococcus sp = assay: Bacterial translocation (Enterococcus sp) in indomethacin-induced intestinal inflammation; type: in vivo; conditions: number of positive cultures / total number of samples in group, mesenteric lymph nodes, mice, 30 mg/kg orally
Method: as §1
Once the intestinal inflammation has been induced, one group of mice were treated with 30 mg of the compound 2-acetylthioisosorbide-5-mononitrate per kg of body weight, being dissolved this compound in water and administered orally. […]
as §3, with “degree. […]” for “degree.”

duodenum = assay: Motor activity: spontaneous contractions recorded at duodenum, indomethacin-induced intestinal inflammation; type: in vivo; conditions: spontaneous contractions recorded at duodenum per minute, mice, 30 mg/kg orally
Method: as §1, §2
(§4) Studies of the route, magnitude, and time course of bacterial translocation in a model of systemic inflammation were achieved as describe in Arch Surg 126:33-37, 1991. Bacterial translocation was expressed as the number of positive cultures with respect to the total number of samples in each group and motor activity was measured as the contracting activity expressed as the total number of spontaneous contractions recorded at duodenum per minute.

E. coli = assay: Bacterial translocation (E. coli) in indomethacin-induced intestinal inflammation; type: in vivo; conditions: mice; for Bacterial translocation E. coli: number of positive cultures / total number of samples in group, mesenteric lymph nodes, 30 mg/kg orally
Method: as §1, §2, §3, §4

SMILES	intraocular pressure 0 hr [1]	reduction of intraocular pressure (in words) [1]	intraocular pressure 1 hr [1]	intraocular pressure 2 hr [1]	reduction of MTO activity (in words) (Myeloperoxidase (MPO); compared to a structurally similar compound (IS-5-MN))	MPO activity (Myeloperoxidase (MPO))	Bacterial translocation Enterococcus sp (Enterococcus sp)	Contractions/min (duodenum)	bacterial translocation (in words) (E. coli)	Bacterial translocation E. coli (E. coli)
C[S@@+]([O-])C1COC2C(O[N+](=O)[O-])COC21 (stereo partly drawn) [2-[(R)-methylsulfinyl]isosorbide-5-mononitrate]	33.87 ± 0.38 mm Hg	significantly reduce the intraocular pressure	23.51 ± 0.24 mm Hg	22.77 ± 0.19 mm Hg	–	–	–	–	–	–
CC(=O)S[C@H]1CO[C@H]2[C@@H]1OC[C@H]2O[N+](=O)[O-] [2-acetylthioisosorbide-5-mononitrate, 2-acetylthio-isosorbide-5-mononitrate]	34.33 ± 0.68 mm Hg	significantly reduce the intraocular pressure	24.72 ± 0.47 mm Hg	23.86 ± 0.32 mm Hg	significant reduction	10 ± 2 ng/mL	1/6	0.2 ± 0.1 Contractions/min	also reduced	2/6
O=[N+]([O-])O[C@@H]1CO[C@H]2[C@@H]1OC[C@@H]2O [IS-5-MN, isosorbide-5-mononitrate, reference compound]	–	–	–	–	–	19 ± 4 ng/mL	3/6	0.5 ± 0.1 Contractions/min	–	3/6
CC(C)(C)NC[C@H](O)COc1nsnc1N1CCOCC1 [Timolol, reference compound]	34.45 ± 0.58 mm Hg	–	24.77 ± 0.26 mm Hg	24.54 ± 0.26 mm Hg	–	–	–	–	–	–
